Target: T1, aldolase A (Homo sapiens, UniProt P04075)
T1 sequence (P04075 1-364): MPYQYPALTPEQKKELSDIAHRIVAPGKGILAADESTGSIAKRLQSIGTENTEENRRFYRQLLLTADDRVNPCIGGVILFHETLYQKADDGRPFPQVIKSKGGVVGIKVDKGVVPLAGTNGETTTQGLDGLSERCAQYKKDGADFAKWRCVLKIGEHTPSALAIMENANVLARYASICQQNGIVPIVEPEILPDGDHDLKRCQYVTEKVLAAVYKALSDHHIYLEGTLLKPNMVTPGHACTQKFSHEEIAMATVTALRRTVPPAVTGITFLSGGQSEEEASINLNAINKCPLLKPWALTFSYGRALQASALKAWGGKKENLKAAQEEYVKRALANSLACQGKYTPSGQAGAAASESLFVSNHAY
Test: Activity assay at protein level: aldolase-catalyzed degradation of fructose-1,6-biphosphate, coupled triose phosphate isomerase/glycerol-3-phosphate dehydrogenase method
Type: biochemical
Conditions: test concentration of compound 100 μM, FBP 500 μM, 37° C., read-out: Inhibition rate (%) of aldolase activity
Experimental: The inhibition on aldolase activity of a compound was evaluated by its inhibition on the rate of aldolase-catalyzed degradation of the substrate fructose-1,6-biphosphate (FBP). Method for conjugation of triose phosphate isomerase/glycerol-3-phosphate dehydrogenase [Racker, E. (1952) J. Biol. Chem. 196, 347-351] was specifically used for biochemical activity assay (Table 3).
The specific method was as follows:
(1) About 250 ng of aldolase A was dissolved in 30 μL of water, added to the bottom of a 96-well plate of quartz, and a compound (dissolved in DMSO, not exceeding 1% of the total reaction volume) was added to the aldolase A solution, followed by shaking and mixing, and incubation for 30 min at room temperature; […]
(2) 70 μL of an enzyme reaction system (its formulation was given below) was added, and immediately put into a microplate reader (SpectraMax M5, Molecular Devices), to carry out reaction at 37° C. At the same time, the absorbance at 340 nm was measured every 30 s, and a total of 61 absorbance values were obtained for each well. The absorbance value linearly changed with time, and the slope was the enzyme activity of aldolase in the well. The specific value was calculated by SoftMax Pro 5.4.1; […]
a. enzyme reaction buffer (50 mM TEA-HCl, pH 7.4, 10 mM EDTA) […]
d. triose phosphate isomerase (about 20 U) e. glycerol-3-phosphate dehydrogenase (about 2 U)
(3) Two parallel experiments were set for each group, with DMSO having a final concentration of 1% as the blank control, and the final concentration of compound being 100 μM.

## CCn1cc[n+](Cc2cc(F)ccc2OC)c1C [IA-6]
  inhibition at 100 µM: 83.4%

## CCn1cc[n+](Cc2c(Cl)cccc2Cl)c1C [IA-7]
  inhibition at 100 µM: 88.4%

## CCCn1cc[n+](Cc2cc(F)ccc2OC)c1C [IA-10]
  inhibition at 100 µM: 0.06%

## Cc1n(C(C)C)cc[n+]1Cc1c(Cl)cccc1Cl [IA-14]
  inhibition at 100 µM: 5.06%

## CCCCCCCCCCCCCCCCn1c(C)[n+](Cc2c(F)cccc2Cl)c2ccccc21 [IIA-1]
  inhibition at 100 µM: 49.9%
